Data: ChEMBL document CHEMBL5303762, “Data for DCP probe BI-8668” (2023)

Key:
Rattus norvegicus = species: Rattus norvegicus; details: Compound concentration 10.0 uM
[1] = target: T1, Alpha-2A adrenergic receptor (Homo sapiens) (UniProt P08913); details: Compound concentration 10.0 uM
T1 sequence (whole entry): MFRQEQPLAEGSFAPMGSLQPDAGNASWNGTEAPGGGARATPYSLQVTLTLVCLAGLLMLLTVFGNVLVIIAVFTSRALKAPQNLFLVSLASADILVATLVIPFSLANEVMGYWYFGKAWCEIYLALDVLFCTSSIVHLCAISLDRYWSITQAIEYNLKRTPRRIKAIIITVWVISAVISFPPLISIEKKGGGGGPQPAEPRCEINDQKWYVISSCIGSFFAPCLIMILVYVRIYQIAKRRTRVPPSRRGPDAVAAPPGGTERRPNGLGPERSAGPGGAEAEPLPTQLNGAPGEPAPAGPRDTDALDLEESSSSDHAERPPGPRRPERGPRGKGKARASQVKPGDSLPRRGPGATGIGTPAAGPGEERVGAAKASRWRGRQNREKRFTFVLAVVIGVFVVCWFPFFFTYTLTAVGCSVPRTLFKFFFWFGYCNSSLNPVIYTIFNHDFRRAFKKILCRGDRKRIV

[2] = target: T2, Alpha-1A adrenergic receptor (Homo sapiens) (UniProt P35348); experiment: ALPHA1A(H)ANTAG Eurofins SafetyScreen44 (BI); details: filed as antagonist, Compound concentration 10.0 uM
T2 sequence (whole entry): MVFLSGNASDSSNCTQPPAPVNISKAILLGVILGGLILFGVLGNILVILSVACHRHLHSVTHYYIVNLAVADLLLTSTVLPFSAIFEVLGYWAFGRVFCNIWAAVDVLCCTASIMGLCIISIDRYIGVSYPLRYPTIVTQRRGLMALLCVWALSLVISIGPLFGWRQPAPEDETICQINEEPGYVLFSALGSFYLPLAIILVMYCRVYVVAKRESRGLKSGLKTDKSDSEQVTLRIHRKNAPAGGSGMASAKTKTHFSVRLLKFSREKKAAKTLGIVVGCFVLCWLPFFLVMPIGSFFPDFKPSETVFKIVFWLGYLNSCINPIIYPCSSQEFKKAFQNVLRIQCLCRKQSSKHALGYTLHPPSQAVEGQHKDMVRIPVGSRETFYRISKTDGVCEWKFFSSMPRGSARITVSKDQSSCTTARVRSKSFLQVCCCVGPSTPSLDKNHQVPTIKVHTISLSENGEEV

[3] = target: Sodium-dependent serotonin transporter (Homo sapiens) (UniProt P31645); details: Compound concentration 10.0 uM
Chain of Sodium-dependent serotonin transporter (Homo sapiens) (P31645 whole entry, looked up): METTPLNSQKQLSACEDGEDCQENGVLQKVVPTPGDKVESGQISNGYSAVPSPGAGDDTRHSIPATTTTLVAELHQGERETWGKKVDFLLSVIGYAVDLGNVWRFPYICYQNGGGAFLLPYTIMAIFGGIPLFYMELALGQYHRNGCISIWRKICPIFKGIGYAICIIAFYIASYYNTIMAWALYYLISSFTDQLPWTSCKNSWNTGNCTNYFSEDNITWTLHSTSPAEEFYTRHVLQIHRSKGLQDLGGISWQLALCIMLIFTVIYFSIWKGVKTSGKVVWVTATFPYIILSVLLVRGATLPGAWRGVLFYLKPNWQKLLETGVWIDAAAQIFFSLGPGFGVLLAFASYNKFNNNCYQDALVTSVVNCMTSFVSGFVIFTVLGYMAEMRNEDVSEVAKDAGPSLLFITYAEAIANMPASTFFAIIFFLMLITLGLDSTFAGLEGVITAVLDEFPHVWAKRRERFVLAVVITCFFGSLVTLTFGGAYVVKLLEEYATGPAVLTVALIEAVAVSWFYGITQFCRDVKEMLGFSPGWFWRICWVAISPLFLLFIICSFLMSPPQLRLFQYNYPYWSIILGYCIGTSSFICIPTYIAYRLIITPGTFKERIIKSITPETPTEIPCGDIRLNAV

CCn1c(CNC(=O)c2nc(Cl)cnc2N)[n+](CC)c2ccc(C(=O)N(C)CCN(C)C)cc21
inactive: inhibition (Rattus norvegicus) -1.51% | inhibition [1] 0.56% | residual activity [2] 89% | inhibition [3] 8.39%
